In patent US10669242B2 (priority 2016, dated 2020):

target: T1, recombinant glucosyltransferase domain of C. difficile Toxin B/TcdB (Clostridioides difficile, UniProt P18177); experiment: biochemical
T1 construct: 6-His (C); purchased R&D Systems 6246-GT
T1 sequence (P18177 1-543): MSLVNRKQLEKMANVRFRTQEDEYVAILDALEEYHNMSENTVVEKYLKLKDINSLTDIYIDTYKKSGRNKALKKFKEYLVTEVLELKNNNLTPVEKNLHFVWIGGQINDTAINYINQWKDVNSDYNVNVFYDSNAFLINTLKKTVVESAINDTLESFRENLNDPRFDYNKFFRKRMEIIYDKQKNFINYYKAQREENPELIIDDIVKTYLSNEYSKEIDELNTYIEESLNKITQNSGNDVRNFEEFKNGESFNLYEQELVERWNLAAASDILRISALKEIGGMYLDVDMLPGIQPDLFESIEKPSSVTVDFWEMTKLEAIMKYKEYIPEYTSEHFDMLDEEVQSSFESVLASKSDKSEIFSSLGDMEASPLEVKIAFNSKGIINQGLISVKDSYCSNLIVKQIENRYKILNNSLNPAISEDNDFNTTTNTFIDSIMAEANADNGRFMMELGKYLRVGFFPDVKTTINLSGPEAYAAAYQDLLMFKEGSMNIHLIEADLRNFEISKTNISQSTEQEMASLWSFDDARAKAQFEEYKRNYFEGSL

Row | Structure (SMILES) | IC50 [µM]
1 | Cc1ccc(Nc2nn(C)c3cc(CN4C(=O)c5ccc(Cl)cc5NC(=O)[C@H]4Cc4ccccn4)ccc23)nc1 [Example 44a, (R)-8-Chloro-4-((1-methyl-3-((5-methylpyridin-2-yl)amino)-1H-indazol-6-yl)methyl)-3-(pyridin-2-ylmethyl)-3,4-dihydro-1H-benzo[e][1,4]diazepine-2,5-dione] | 0.1 to 0.999
2 | COc1ccc(NC(=O)c2ccc(CN3C(=O)c4ccc(Cl)cc4NC(=O)C3Cc3cnccn3)cc2)nc1 (stereo not shown) [Example 5w, 4-((8-chloro-2,5-dioxo-3-(pyrazin-2-ylmethyl)-2,3-dihydro-1H-benzo[e][1,4]diazepin-4(5H)-yl)methyl)-N-(5-methoxypyridin-2-yl)benzamide] | < 0.1
3 | O=C(c1ccc(CN2C(=O)c3ccc(Cl)cc3NC(=O)[C@H]2Cc2ccccn2)cc1)c1cccc2cccnc12 [Example 31b] | 1 to 10
4 | O=C(Nc1ccccn1)c1ccc(CN2Cc3ccc(Cl)cc3NC(=O)[C@H]2Cc2ccccn2)cc1 [Example 20a, (R)-4-((8-Chloro-2-oxo-3-(pyridin-2-ylmethyl)-2,3-dihydro-1H-benzo[e][1,4]diazepin-4(5H)-yl)methyl)-N-(pyridin-2-yl)benzamide] | 1 to 10
5 | Cc1nnc(NC(=O)c2ccc(CN3C(=O)c4ccc(Cl)cc4NC(=O)[C@H]3Cc3ccccn3)cc2)s1 [Example 4bn, (R)-4-((8-chloro-2,5-dioxo-3-(pyridin-2-ylmethyl)-2,3-dihydro-1H-benzo[e][1,4]diazepin-4(5H)-yl)methyl)-N-(5-methyl-1,3,4-thiadiazol-2-yl)benzamide] | 1 to 10
6 | Cc1ccc(C[C@@H]2C(=O)Nc3cc(Cl)ccc3C(=O)N2Cc2ccc(C(=O)O)cc2)cc1 [Example 3h] | 10 to 35
7 | COc1ccc2c(c1)NC(=O)[C@@H](Cc1cccnc1)N(Cc1ccc(C(=O)O)cc1)C2=O [Example 2e] | 1 to 10
8 | Cc1ccc(NC(=O)c2ccc(CN3C(=O)c4ccc(Cl)cc4NC(=O)[C@H]3CCN3CCC(O)CC3)cc2)nc1 [Example 10c, (R)-4-((8-chloro-3-(2-(4-hydroxypiperidin-1-yl)ethyl)-2,5-dioxo-2,3-dihydro-1H-benzo[e][1,4]diazepin-4(5H)-yl)methyl)-N-(5-methylpyridin-2-yl)benzamide] | 1 to 10
9 | O=C(O)c1ccc(CN2C(=O)c3ccc(F)cc3NC(=O)[C@H]2Cc2cccnc2)cc1 [Example 1b] | 1 to 10
10 | O=C(O)c1ccc(CN2C(=O)c3ccc(Cl)cc3NC(=O)[C@H]2Cc2ccccc2Cl)cc1 [Example 3i] | 1 to 10
11 | Cc1cnc(NC(=O)c2ccc(CN3C(=O)c4ccc(Cl)cc4NC(=O)[C@H]3C)cc2)cn1 [Example 4bi, (R)-4-((8-chloro-3-methyl-2,5-dioxo-2,3-dihydro-1H-benzo[e][1,4]diazepin-4(5H)-yl)methyl)-N-(5-methylpyrazin-2-yl)benzamide] | 0.1 to 0.999
12 | O=C(CN1CCOCC1)Nc1cc(CN2C(=O)c3ccc(Cl)cc3NC(=O)[C@H]2Cc2ccccn2)ccc1C(=O)O [Example 22h] | 1 to 10
13 | Cn1cccc(C(=O)c2ccc(CN3C(=O)c4ccc(Cl)cc4NC(=O)[C@H]3Cc3ccccn3)cc2)c1=O [Example 53a] | 0.1 to 0.999
14 | COc1ccc(NC(=O)c2ccc(CN3C(=O)c4ccc(Cl)cc4NC(=O)[C@H]3C)cc2)nc1 [Example 4ba, (R)-4-((8-chloro-3-methyl-2,5-dioxo-2,3-dihydro-1H-benzo[e][1,4]diazepin-4(5H)-yl)methyl)-N-(5-methoxypyridin-2-yl)benzamide] | 0.1 to 0.999
15 | Cn1ccnc1C(=O)[C@H]1CC[C@H](CN2C(=O)c3ccc(Cl)cc3NC(=O)[C@H]2Cc2ccccn2)CC1 [Example 33c] | 1 to 10
16 | COc1cnc(NC(=O)c2ccc(CN3C(=O)c4ccc(Cl)cc4NC(=O)[C@H]3C)cc2)nc1 [Example 4be, (R)-4-((8-chloro-3-methyl-2,5-dioxo-2,3-dihydro-1H-benzo[e][1,4]diazepin-4(5H)-yl)methyl)-N-(5-methoxypyrimidin-2-yl)benzamide] | < 0.1
17 | Cc1nnc(NC(=O)c2ccc(CN3C(=O)c4ccc(Cl)cc4NC(=O)[C@H]3Cc3ccccn3)cc2)o1 [Example 4bo, (R)-4-((8-chloro-2,5-dioxo-3-(pyridin-2-ylmethyl)-2,3-dihydro-1H-benzo[e][1,4]diazepin-4(5H)-yl)methyl)-N-(5-methyl-1,3,4-oxadiazol-2-yl)benzamide] | < 0.1
18 | Cc1ccc(C[C@@H]2C(=O)Nc3cc(Cl)ccc3C(=O)N2Cc2ccc(C(=O)Nc3ccccn3)cc2)cc1 [Example 4co, (R)-4-((8-chloro-3-(4-methylbenzyl)-2,5-dioxo-2,3-dihydro-1H-benzo[e][1,4]diazepin-4(5H)-yl)methyl)-N-(pyridin-2-yl)benzamide] | 0.1 to 0.999
19 | Cc1noc(C)c1-c1cc(CN2C(=O)c3ccc(Cl)cc3NC(=O)[C@H]2Cc2ccccn2)ccc1C(=O)O [Example 8t, 4-(((R)-8-chloro-2,5-dioxo-3-(pyridin-2-ylmethyl)-2,3-dihydro-1H-benzo[e][1,4]diazepin-4(5H)-yl)methyl)-2-(3,5-dimethylisoxazol-4-yl)benzoic acid] | 1 to 10

Row | Structure (SMILES) | IC50 [µM]
20 | O=C(Nc1ccc(F)cn1)c1ccc(CN2C(=O)c3ccc(Cl)cc3NC(=O)[C@H]2Cc2ccccn2)cc1Cl [Example 5ao, (R)-2-chloro-4-((8-chloro-2,5-dioxo-3-(pyridin-2-ylmethyl)-2,3-dihydro-1H-benzo[e][1,4]diazepin-4(5H)-yl)methyl)-N-(5-fluoropyridin-2-yl)benzamide] | < 0.1
21 | Cc1cccc(C[C@@H]2C(=O)Nc3cc(Cl)ccc3C(=O)N2Cc2ccc(C(=O)O)cc2)c1 [Example 3m] | 1 to 10
22 | Cc1cnc(NC(=O)c2ccc(CN3C(=O)c4ccc(Cl)cc4NC(=O)[C@H]3Cc3cccnc3)cc2)nc1 [Example 5h, (R)-4-((8-chloro-2,5-dioxo-3-(pyridin-3-ylmethyl)-2,3-dihydro-1H-benzo[e][1,4]diazepin-4(5H)-yl)methyl)-N-(5-methylpyrimidin-2-yl)benzamide] | < 0.1
23 | COc1ccc(NC(=O)c2ccc(S(=O)(=O)N3Cc4ccc(Cl)cc4NC(=O)[C@@H]3Cc3ccccn3)cc2)nc1 [Example 19d, (S)-4-((8-chloro-2-oxo-3-(pyridin-2-ylmethyl)-2,3-dihydro-1H-benzo[e][1,4]diazepin-4(5H)-yl)sulfonyl)-N-(5-methoxypyridin-2-yl)benzamide] | 0.1 to 0.999
24 | Cc1cccc(C[C@@H]2C(=O)Nc3cc(Cl)ccc3C(=O)N2Cc2ccc(C(=O)Nc3ccccn3)cc2)c1 [Example 4aj, (R)-4-((8-chloro-3-(3-methylbenzyl)-2,5-dioxo-2,3-dihydro-1H-benzo[e][1,4]diazepin-4(5H)-yl)methyl)-N-(pyridin-2-yl)benzamide] | 0.1 to 0.999
25 | O=C(Nc1ccccn1)c1ccc(CN2C(=O)c3ccc(Cl)cc3NC(=O)[C@H]2Cc2ccccc2F)cc1 [Example 4an, (R)-4-((8-chloro-3-(2-fluorobenzyl)-2,5-dioxo-2,3-dihydro-1H-benzo[e][1,4]diazepin-4(5H)-yl)methyl)-N-(pyridin-2-yl)benzamide] | < 0.1
26 | Cc1cc(C(=O)Nc2ccc(CN3C(=O)c4ccc(Cl)cc4NC(=O)[C@H]3Cc3ccccn3)cc2)no1 [Example 27g] | 1 to 10
27 | O=C(Nc1ccccn1)c1ccc(S(=O)(=O)N2Cc3ccc(Cl)cc3NC(=O)[C@@H]2Cc2ccccn2)cc1 [Example 19c, (S)-4-((8-chloro-2-oxo-3-(pyridin-2-ylmethyl)-2,3-dihydro-1H-benzo[e][1,4]diazepin-4(5H)-yl)sulfonyl)-N-(pyridin-2-yl)benzamide] | 0.1 to 0.999
28 | O=C(Nc1cc(CN2C(=O)c3ccc(Cl)cc3NC(=O)[C@H]2Cc2ccccn2)ccc1C(=O)O)c1ccccn1 [Example 21a, (R)-4-((8-Chloro-2,5-dioxo-3-(pyridin-2-ylmethyl)-2,3-dihydro-1H-benzo[e][1,4]diazepin-4(5H)-yl)methyl)-2-(picolinamido)benzoic Acid] | 1 to 10
29 | O=C(Nc1cnccn1)c1ccc(CN2C(=O)c3ccc(Cl)cc3NC(=O)[C@H]2Cc2cccnc2)cc1 [Example 5c, (R)-4-((8-chloro-2,5-dioxo-3-(pyridin-3-ylmethyl)-2,3-dihydro-1H-benzo[e][1,4]diazepin-4(5H)-yl)methyl)-N-(pyrazin-2-yl)benzamide] | < 0.1
30 | O=C(Nc1ncccc1Cl)c1ccc(CN2C(=O)c3ccc(Cl)cc3NC(=O)[C@H]2Cc2cccnc2)cc1 [Example 5e, (R)-4-((8-chloro-2,5-dioxo-3-(pyridin-3-ylmethyl)-2,3-dihydro-1H-benzo[e][1,4]diazepin-4(5H)-yl)methyl)-N-(3-chloropyridin-2-yl)benzamide] | 0.1 to 0.999
31 | O=C1Nc2cc(Cl)ccc2C(=O)N(C[C@H]2CC[C@H](C(=O)N3CCc4cccnc43)CC2)[C@@H]1Cc1ccccn1 [Example 4cg, (R)-8-chloro-4-(((1r,4R)-4-(2,3-dihydro-1H-pyrrolo[2,3-b]pyridine-1-carbonyl)cyclohexyl)methyl)-3-(pyridin-2-ylmethyl)-3,4-dihydro-1H-benzo[e][1,4]diazepine-2,5-dione] | < 0.1
32 | O=C(CN1CCCC1)Nc1cc(CN2C(=O)c3ccc(Cl)cc3NC(=O)[C@H]2Cc2ccccn2)ccc1C(=O)O [Example 22n] | 0.1 to 0.999
33 | O=C(O)c1ccc(CN2C(=O)c3ccc(Cl)cc3NC(=O)[C@H]2Cc2ccc(Cl)cc2)cc1 [Example 3e] | 10 to 35
34 | O=C(Nc1ccccn1)c1ccc(CN2C(=O)c3ccc(Cl)cc3NC(=O)[C@H]2c2ccccc2)cc1 [Example 35c] | 1 to 10
35 | CN1CCN(CC(=O)Nc2cc(CN3C(=O)c4ccc(Cl)cc4NC(=O)[C@H]3Cc3ccccn3)ccc2C(=O)O)CC1 [Example 22j] | 1 to 10
36 | O=C1Nc2cc(Cl)ccc2C(=O)N(C[C@H]2CC[C@H](C(=O)N3CCCc4cccnc43)CC2)[C@@H]1Cc1ccccn1 [Example 4ch, (R)-8-chloro-3-(pyridin-2-ylmethyl)-4-(((1r,4R)-4-(1,2,3,4-tetrahydro-1,8-naphthyridine-1-carbonyl)cyclohexyl)methyl)-3,4-dihydro-1H-benzo[e][1,4]diazepine-2,5-dione] | 10 to 35
37 | C[C@H]1C(=O)Nc2cc(Cl)ccc2C(=O)N1Cc1ccc(C(=O)Nc2ccccn2)cc1 [Example 4f, (S)-4-((8-chloro-3-methyl-2,5-dioxo-2,3-dihydro-1H-benzo[e][1,4]diazepin-4(5H)-yl)methyl)-N-(pyridin-2-yl)benzamide] | < 0.1
